The text below walks through data of patent publication US20050074777A1, “Novel cell-surface estrogen receptor and related compositions and methods” (priority 2002, published 2005).

Test [1] concerns the target ER-X (plasma-membrane estrogen binding site of P7 ERKO and wild-type neocortex). In words: 3H-estradiol saturation binding to Percoll-purified neocortical plasma-membranes. Also on record: species or system mouse. The following applies: Percoll-purified plasma-membranes from P7 ERKO and wild-type neocortex, 50 μg/tube, 18 hours at 4° C.; read-out: equilibrium dissociation constant, Kd. The procedure:
Binding of ^3H estradiol to Percoll®-purified plasma-membranes from P7 ERKO and wild-type mouse neocortex. (a) Identical amounts of membrane protein (50 μg/tube) were incubated with varying concentrations of ^3H estradiol (0.3-8 nM) for 18 hours at 4° C. The reaction was terminated by addition of hydroxylapatite (HAP). The membranes and HAP were sedimented by centrifugation in a microfuge, and the pellet washed 4 times to remove free steroid. Radioactivity in the pellets was extracted with ethanol and counted. […] (b) Specificity of the binding site in Percoll®-purified membranes from P7 ERKO mouse neocortex. […] Bound ^3H estradiol was separated by sedimentation with HAP and counted at an efficiency of 50%. Data represent the number of bound counts (after subtraction of HAP-only blank control tubes, containing no membrane protein) expressed as the means +/-S.D. of triplicate determinations. The horizontal dashed line indicates the level of non-specific binding observed in the presence of 1 μM DES. Caveolar-like membrane (CLM) preparation. Membrane fractions were prepared by adapting the detergent-free method of Smart et al. (Smart, 1995). […] The ethanol supernatants were transferred to liquid scintillation fluid (5 ml) and counted. […] Specific binding was calculated by subtracting non-specific from total binding.

The subject of test [2] is estrogen-binding protein (ER-X). The test is described as follows: DES-sensitive 3H-estradiol binding in CLM preparations and lysates. Set-up: species or system mouse. As for the experimental part: Caveolar-like membrane (CLM) preparation. Membrane fractions were prepared by adapting the detergent-free method of Smart et al. (Smart, 1995). Briefly, pools of 40-50 P7 ERKO neocortices were homogenized in 20 mM Tricine, pH 7.8 buffer, containing 1 mM EDTA, 0.25M sucrose and 1 mM dithiothreitol (TESD buffer), then centrifuged at 1000×g at 4° C. for 10 minutes. The pellet was resuspended in TESD buffer, re-centrifuged, and the supernatants pooled. The combined supernatants were subjected to Percoll® gradient fractionation in the same buffer to isolate the plasma membrane fraction. In some binding experiments (indicated below), Percoll® purified plasma membranes were used without further fractionation. For preparation of CLMs, plasma-membranes were sonicated and further separated by centrifugation on a linear 20% to 10% OptiPrep (iodixanol) gradient (Nycomed Pharma AS, Oslo, Norway). Based upon their light buoyant density, CLMs were separated and purified from non-CLMs using two OptiPrep density gradients. […] Electrophoretically separated CLMs on PVDF membranes were probed with antibodies specific for ER-α ([…], UBI; MC20, Santa Cruz), ER-β (Zymed), flotillin (BD Transduction Labs) and other caveolar-resident proteins (PKC-α and PKC-γ, BD Transduction Labs) and non-caveolar-resident proteins (paxillin, BD Transduction Labs). Estrogen binding assay. Duplicate aliquots of 1 mg each of protein lysate from ERKO P7 neocortex or wild-type adult uterus were pre-cleared for 30 minutes using anti-rabbit-IgG-coated magnetic beads (Dynal AS). Pre-cleared protein lysates were immunoprecipitated with anti-ER-α antibodies (6F11, Novocastra; or MC20, Santa Cruz) at 4° C. overnight. […] NEN Life Sciences, Boston, Mass.) at 4° C. for 18 hours. The incubation was terminated by adsorption of the binding sites onto an equal volume of hydroxylapatite (HAP) slurry in TESD buffer. HAP pellets were washed four times with Tris-buffered saline containing 0.2% Tween-20 buffer and extracted with 1 ml absolute ethanol overnight at room temperature. The ethanol supernatants were transferred to liquid scintillation fluid (5 ml) and counted. Control tubes, used in assessing HAP adsorption of free steroid, contained HAP and the same buffer constituents, without addition of the membranes. Non-specific binding was assayed in the membranes using the same amount of radioactive ligand plus 200-fold molar excess of unlabeled diethylstilbestrol (DES) (Sigma-Aldrich). Specific binding was calculated by subtracting non-specific from total binding.

As for `C[C@]12CC[C@@H]3c4ccc(O)cc4CC[C@H]3[C@@H]1CC[C@@H]2O` [^3H-estradiol, 2,4,6,7, 16, 17-^3H estradiol], the Kd in test [1] was approximately 1.6 nM. Further, the DES-sensitive estrogen binding in test [2] (P7 ERKO neocortical lysates) is given as 9.94 fmol/mg lysate protein; in test [2] (neocortical CLM preparations from P7 ERKO mice, 10 nM 3H-estradiol) it was 282.12 fmol/mg CLM protein; in test [2] (wild-type adult uterine lysates), 38.85 fmol/mg lysate protein.

By Kd is commonly meant the free concentration of one partner at which half of the binding sites on the other are occupied at equilibrium, for simple one-to-one binding.
